According to patent publication US9529005B2, “Modulating bacterial MAM polypeptides in pathogenic disease” (priority 2011, dated 2016):
Converted amounts (≈) assume the structure as drawn. Like-named read-outs stand apart in the source and are kept apart here.

What was measured:
Experiment in all cases: Antimicrobial susceptibility testing (MIC), BD Phoenix Automated Microbiology System; as to interpretation of the result: key: R, resistant; I, intermediate; S, susceptible; R*: *As a rule, when ESBL is detected, an interpretation of susceptible or intermediate for penicillins, cephalosporins and aztreonam is reported as resistant
Assay type in all cases: cell-based
Klebsiella ssp. = settings: for MIC: Klebsiella
Text: (§1) The inventors performed antimicrobial susceptibility testing (AST) by determining the minimal inhibiting concentration (MIC) of a panel of antimicrobials on all twenty bacterial isolates using the BD Phoenix Automated Microbiology System (Table 3). Antimicrobial panels included several drugs from each of the four most commonly used classes of antimicrobials, aminoglycosides, β-lactams, carbapenems and fluoroquinolones. The panels also included antimicrobials from other classes, such as trimethoprim/sulfamethoxazole, but resistance to these was not considered in the classification of isolates as multidrug-resistant.

Escherichia coli = settings: for MIC: Escherichia coli
Text: as §1

Acinetobacter baumannii = settings: for MIC: Acinetobacter baumannii
Text: as §1

Pseudomonas aeruginosa = settings: for MIC: Pseudomonas aeruginosa
Text: as §1

[1] = read-out: minimal inhibiting concentration, Klebsiella ssp. isolate 2
[2] = read-out: minimal inhibiting concentration, Klebsiella ssp. isolate 3
[3] = read-out: minimal inhibiting concentration, Klebsiella ssp. isolate 4
[4] = Acinetobacter baumannii isolate 1
[5] = Acinetobacter baumannii isolate 2
[6] = Acinetobacter baumannii isolate 3
[7] = Acinetobacter baumannii isolate 4
[8] = Acinetobacter baumannii isolate 5
[9] = read-out: minimal inhibiting concentration, Acinetobacter baumannii isolate 1
[10] = read-out: minimal inhibiting concentration, Acinetobacter baumannii isolate 2
[11] = read-out: minimal inhibiting concentration, Acinetobacter baumannii isolate 3
[12] = read-out: minimal inhibiting concentration, Acinetobacter baumannii isolate 4
[13] = read-out: minimal inhibiting concentration, Acinetobacter baumannii isolate 5
[14] = read-out: minimal inhibiting concentration, Klebsiella ssp. isolate 1
[15] = read-out: minimal inhibiting concentration, Klebsiella ssp. isolate 5
[16] = Pseudomonas aeruginosa isolate 1
[17] = Pseudomonas aeruginosa isolate 2
[18] = Pseudomonas aeruginosa isolate 3
[19] = Pseudomonas aeruginosa isolate 4
[20] = Pseudomonas aeruginosa isolate 5
[21] = Escherichia coli isolate 1, read-out: minimal inhibiting concentration
[22] = Escherichia coli isolate 2, read-out: minimal inhibiting concentration
[23] = Escherichia coli isolate 3, read-out: minimal inhibiting concentration
[24] = Escherichia coli isolate 4, read-out: minimal inhibiting concentration
[25] = Escherichia coli isolate 5, read-out: minimal inhibiting concentration
[26] = read-out: minimal inhibiting concentration, Escherichia coli isolate 1
[27] = read-out: minimal inhibiting concentration, Escherichia coli isolate 2
[28] = read-out: minimal inhibiting concentration, Escherichia coli isolate 3
[29] = read-out: minimal inhibiting concentration, Escherichia coli isolate 4
[30] = read-out: minimal inhibiting concentration, Escherichia coli isolate 5

| Compound | interpretation of the result (Klebsiella ssp.; Klebsiella ssp. isolate 2) | interpretation of the result (Klebsiella ssp.; Klebsiella ssp. isolate 3) | interpretation of the result (Klebsiella ssp.; Klebsiella ssp. isolate 4) | interpretation of the result (Acinetobacter baumannii; [4]) | interpretation of the result (Acinetobacter baumannii; [5]) | interpretation of the result (Acinetobacter baumannii; [6]) | interpretation of the result (Acinetobacter baumannii; [7]) | interpretation of the result (Acinetobacter baumannii; [8]) | MIC (Acinetobacter baumannii; [9]) | MIC (Acinetobacter baumannii; [10]) | MIC (Acinetobacter baumannii; [11]) | MIC (Acinetobacter baumannii; [12]) | MIC (Acinetobacter baumannii; [13]) | interpretation of the result (Klebsiella ssp.; Klebsiella ssp. isolate 1) | interpretation of the result (Escherichia coli; Escherichia coli isolate 1) | interpretation of the result (Escherichia coli; Escherichia coli isolate 2) | interpretation of the result (Escherichia coli; Escherichia coli isolate 3) | interpretation of the result (Escherichia coli; Escherichia coli isolate 4) | other results |
| --- | --- | --- | --- | --- | --- | --- | --- | --- | --- | --- | --- | --- | --- | --- | --- | --- | --- | --- | --- |
| C[C@@H](O)[C@H]1C(=O)N2C(C(=O)O)=C(S[C@@H]3CN[C@H](C(=O)Nc4cccc(C(=O)O)c4)C3)[C@H](C)[C@H]12 [Ert., Ertapenem] | S | S | S |  |  |  |  |  |  |  |  |  |  |  |  |  |  |  | MIC (Klebsiella ssp.; [1]): ≤ 0.5 µg/mL; MIC (Klebsiella ssp.; [2]): ≤ 0.5 µg/mL; MIC (Klebsiella ssp.; [3]): ≤ 0.5 µg/mL; susceptibility of isolates (Klebsiella ssp.; all Klebsiella ssp. isolates): susceptible; susceptibility of isolates (Escherichia coli; all E. coli isolates): susceptible |
| COc1c(N2CCNC(C)C2)c(F)cc2c(=O)c(C(=O)O)cn(C3CC3)c12 (stereo not shown) [Gati., Gatifloxacin] |  |  |  | R | R | I | R | R | > 4 µg/mL | > 4 µg/mL | 4 µg/mL (≈ 10.7 µM) | > 4 µg/mL | > 4 µg/mL |  |  |  |  |  |  |
| CO/N=C(\C(=O)N[C@@H]1C(=O)N2C(C(=O)O)=C(COC(C)=O)CS[C@H]12)c1csc(N)n1 [Cefo., Cefotaxime] | R | S | R | R | R | R | R | R | > 32 µg/mL | > 32 µg/mL | > 32 µg/mL | > 32 µg/mL | > 32 µg/mL | R |  |  |  |  | interpretation of the result (Klebsiella ssp.; Klebsiella ssp. isolate 5): R; MIC (Klebsiella ssp.; [14]): > 32 µg/mL; MIC (Klebsiella ssp.; [1]): > 32 µg/mL; MIC (Klebsiella ssp.; [2]): ≤ 4 µg/mL; MIC (Klebsiella ssp.; [3]): > 32 µg/mL; MIC (Klebsiella ssp.; [15]): > 32 µg/mL |
| Amoxillin-Calvulanate [AmoxC.] | R | R | R | R | R | R | R | R |  |  |  |  |  | R |  |  |  |  | minimal inhibiting concentration (Klebsiella ssp.; Klebsiella ssp. isolate 1): 16/8; minimal inhibiting concentration (Klebsiella ssp.; Klebsiella ssp. isolate 2): 16/8; minimal inhibiting concentration (Klebsiella ssp.; Klebsiella ssp. isolate 3): 8/4; minimal inhibiting concentration (Klebsiella ssp.; Klebsiella ssp. isolate 4): 16/8; interpretation of the result (Klebsiella ssp.; Klebsiella ssp. isolate 5): R; minimal inhibiting concentration (Klebsiella ssp.; Klebsiella ssp. isolate 5): 16/8; minimal inhibiting concentration (Acinetobacter baumannii; [4]): 16/8; minimal inhibiting concentration (Acinetobacter baumannii; [5]): 16/8; minimal inhibiting concentration (Acinetobacter baumannii; [6]): 16/8; minimal inhibiting concentration (Acinetobacter baumannii; [7]): 16/8; minimal inhibiting concentration (Acinetobacter baumannii; [8]): 16/8 |
| Ampicillin-Sulbactam [AmpS.] |  |  |  |  |  |  |  |  |  |  |  |  |  |  | R | R | R | R | interpretation of the result (Pseudomonas aeruginosa; [16]): R; minimal inhibiting concentration (Pseudomonas aeruginosa; [16]): 16/8; interpretation of the result (Pseudomonas aeruginosa; [17]): R; minimal inhibiting concentration (Pseudomonas aeruginosa; [17]): 16/8; interpretation of the result (Pseudomonas aeruginosa; [18]): R; minimal inhibiting concentration (Pseudomonas aeruginosa; [18]): 16/8; interpretation of the result (Pseudomonas aeruginosa; [19]): R; minimal inhibiting concentration (Pseudomonas aeruginosa; [19]): 16/8; interpretation of the result (Pseudomonas aeruginosa; [20]): R; minimal inhibiting concentration (Pseudomonas aeruginosa; [20]): 16/8; minimal inhibiting concentration (Escherichia coli; Escherichia coli isolate 1): 16/8; minimal inhibiting concentration (Escherichia coli; Escherichia coli isolate 2): 16/8; minimal inhibiting concentration (Escherichia coli; Escherichia coli isolate 3): 16/8; minimal inhibiting concentration (Escherichia coli; Escherichia coli isolate 4): 16/8; interpretation of the result (Escherichia coli; Escherichia coli isolate 5): R; minimal inhibiting concentration (Escherichia coli; Escherichia coli isolate 5): 16/8 |
| C[C@H]1[C@H](NC(=O)/C(=N\OC(C)(C)C(=O)O)c2csc(N)n2)C(=O)N1S(=O)(=O)O [Az., Aztreonam] | R | R | R | R | R | R | R | R |  |  |  |  |  | R | R | R | R | R | interpretation of the result (Klebsiella ssp.; Klebsiella ssp. isolate 5): R; MIC (Klebsiella ssp.; Klebsiella ssp. isolate 1, read-out: minimal inhibiting concentration): > 16 µg/mL; MIC (Klebsiella ssp.; Klebsiella ssp. isolate 2, read-out: minimal inhibiting concentration): > 16 µg/mL; MIC (Klebsiella ssp.; Klebsiella ssp. isolate 3, read-out: minimal inhibiting concentration): > 16 µg/mL; MIC (Klebsiella ssp.; Klebsiella ssp. isolate 4, read-out: minimal inhibiting concentration): > 16 µg/mL; MIC (Klebsiella ssp.; Klebsiella ssp. isolate 5, read-out: minimal inhibiting concentration): > 16 µg/mL; MIC (Escherichia coli; [21]): > 16 µg/mL; MIC (Escherichia coli; [22]): > 16 µg/mL; MIC (Escherichia coli; [23]): > 16 µg/mL; MIC (Escherichia coli; [24]): > 16 µg/mL; MIC (Escherichia coli; [25]): 8 µg/mL (≈ 18.4 µM); MIC (Acinetobacter baumannii; Acinetobacter baumannii isolate 1, read-out: minimal inhibiting concentration): > 16 µg/mL; MIC (Acinetobacter baumannii; Acinetobacter baumannii isolate 2, read-out: minimal inhibiting concentration): > 16 µg/mL; MIC (Acinetobacter baumannii; Acinetobacter baumannii isolate 3, read-out: minimal inhibiting concentration): > 16 µg/mL; MIC (Acinetobacter baumannii; Acinetobacter baumannii isolate 4, read-out: minimal inhibiting concentration): > 16 µg/mL; MIC (Acinetobacter baumannii; Acinetobacter baumannii isolate 5, read-out: minimal inhibiting concentration): > 16 µg/mL |
| CO/N=C(\C(=O)N[C@@H]1C(=O)N2C(C(=O)[O-])=C(C[N+]3(C)CCCC3)CS[C@H]12)c1csc(N)n1 [Cefe., Cefepime] | R |  | R |  |  |  |  |  |  |  |  |  |  | R | R | R | R | R | MIC (Klebsiella ssp.; [14]): > 16 µg/mL; MIC (Klebsiella ssp.; [1]): > 16 µg/mL; MIC (Klebsiella ssp.; [2]): 2 µg/mL (≈ 4.16 µM); MIC (Klebsiella ssp.; [3]): > 16 µg/mL; MIC (Klebsiella ssp.; [15]): 2 µg/mL (≈ 4.16 µM); MIC (Escherichia coli; [26]): > 16 µg/mL; MIC (Escherichia coli; [27]): > 16 µg/mL; MIC (Escherichia coli; [28]): > 16 µg/mL; MIC (Escherichia coli; [29]): > 16 µg/mL; MIC (Escherichia coli; [30]): 8 µg/mL (≈ 16.6 µM) |
| CCN1CCN(C(=O)N[C@@H](C(=O)N[C@@H]2C(=O)N3[C@@H]2SC(C)(C)[C@@H]3C(=O)O)c2ccccc2)C(=O)C1=O [Pip., Piperacillin] |  |  |  | R | R | R | R | R | > 64 µg/mL | > 64 µg/mL | > 64 µg/mL | > 64 µg/mL | > 64 µg/mL |  |  |  |  |  |  |
| O=C(O)c1cn(C2CC2)c2cc(N3CCNCC3)c(F)cc2c1=O [Cipro., Ciprofloxacin] |  |  |  |  |  |  |  |  |  |  |  |  |  |  | R | R | R | R | interpretation of the result (Escherichia coli; Escherichia coli isolate 5): R; MIC (Escherichia coli; [21]): > 2 µg/mL; MIC (Escherichia coli; [22]): > 2 µg/mL; MIC (Escherichia coli; [23]): > 2 µg/mL; MIC (Escherichia coli; [24]): > 2 µg/mL; MIC (Escherichia coli; [25]): > 2 µg/mL |
| CC(=O)OCC1=C(C(=O)O)N2C(=O)[C@@H](NC(=O)Cc3cccs3)[C@H]2SC1 [Ceph., Cephalotin] |  |  |  | R | R | R | R | R |  |  |  |  |  |  |  |  |  |  | minimal inhibiting concentration (Acinetobacter baumannii; [4]): > 16 µg/mL; minimal inhibiting concentration (Acinetobacter baumannii; [5]): > 16 µg/mL; minimal inhibiting concentration (Acinetobacter baumannii; [6]): > 16 µg/mL; minimal inhibiting concentration (Acinetobacter baumannii; [7]): > 16 µg/mL; minimal inhibiting concentration (Acinetobacter baumannii; [8]): > 16 µg/mL |
| CO/N=C(\C(=O)N[C@@H]1C(=O)N2C(C(=O)O)=C(COC(N)=O)CS[C@H]12)c1ccco1 [Cefu., Cefuroxime] |  |  |  | R | R | R | R | R | > 16 µg/mL | > 16 µg/mL | > 16 µg/mL | > 16 µg/mL | > 16 µg/mL |  | R | R | R | R | interpretation of the result (Pseudomonas aeruginosa; [16]): R; interpretation of the result (Pseudomonas aeruginosa; [17]): R; interpretation of the result (Pseudomonas aeruginosa; [18]): R; interpretation of the result (Pseudomonas aeruginosa; [19]): R; interpretation of the result (Pseudomonas aeruginosa; [20]): R; MIC (Pseudomonas aeruginosa; read-out: minimal inhibiting concentration, Pseudomonas aeruginosa isolate 1): > 16 µg/mL; MIC (Pseudomonas aeruginosa; read-out: minimal inhibiting concentration, Pseudomonas aeruginosa isolate 2): > 16 µg/mL; MIC (Pseudomonas aeruginosa; read-out: minimal inhibiting concentration, Pseudomonas aeruginosa isolate 3): > 16 µg/mL; MIC (Pseudomonas aeruginosa; read-out: minimal inhibiting concentration, Pseudomonas aeruginosa isolate 4): > 16 µg/mL; MIC (Pseudomonas aeruginosa; read-out: minimal inhibiting concentration, Pseudomonas aeruginosa isolate 5): > 16 µg/mL; interpretation of the result (Escherichia coli; Escherichia coli isolate 5): R; MIC (Escherichia coli; [26]): > 16 µg/mL; MIC (Escherichia coli; [27]): > 16 µg/mL; MIC (Escherichia coli; [28]): > 16 µg/mL; MIC (Escherichia coli; [29]): > 16 µg/mL; MIC (Escherichia coli; [30]): > 16 µg/mL |
